Source: patent US20220280644A1, “"TRPswitch" - A STEP FUNCTION CHEMO-OPTOGENETIC LIGAND” (UNIVERSITY OF UTAH RESEARCH FOUNDATION, priority 2019, published 2022)

Assays:
[1] = test system: zebrafish Trpa1a (zTrpa1a); experiment: Rescue experiment, Trpa1b−/− embryos expressing zTrpa1a in Rohon-beard neurons; type: in vivo; details: 20 μM, motion within 5 s after 1 s WL3
Description: (§1) For Trpa1b ohnolog and paralog rescue experiments, Trpa1b^−/− embryos were injected with ngn1:zTrpa1b-2A-mCherry (partial plasmid sequence in SEQ ID NO:5), ngn1:zTrpa1a-2A-mCherry, ngn1:hTRPA1-2A-EGFP or ngn1:mTRPA1-2A-mCherry at the 1-cell stage for mosaic Rohon-beard neuron expression. Embryos were screened at 2 dpf for fluorescent expression in Rohon-beard neurons, incubated with 20 μM TRPswitch-B for 1 hr and decapitated posterior to the eyes right before experiments. NA 0.25 5× objective and 1 s WL3 light illumination was used.
(§2) To test the potential cross activity of TRPswitch-B on the zebrafish ohnolog Trpa1a and on mammalian orthologs, zebrafish Trpa1a, mouse TRPA1 or human TRPA1 were transiently re-expressed in the Rohon-beard neurons of mutant Trpa1b^−/− zebrafish and performed light-induced motion response experiments in the presence of TRPswitch-B. Rescue experiments were performed in Trpa1b^−/− zebrafish with transient mosaic re-expression of zebrafish Trpa1b (zTrpa1b), zebrafish Trpa1a (zTrpa1a), mouse TRPA1 (mTRPA1) or human TRPA1 (hTRAP1) in Rohon-beard neurons. Embryos were pre-treated with 20 μM TRPswitch-B and decapitated right before light stimulation to eliminate the light response mediated by the retina (Table 5). […]

[2] = test system: zebrafish Trpa1b (zTrpa1b); experiment: Rescue experiment, Trpa1b−/− embryos re-expressing zTrpa1b in Rohon-beard neurons; type: in vivo; details: 20 μM, motion within 5 s after 1 s WL3
Description: as §1, §2

endogenous human TRPA1 = target: T1, endogenous human TRPA1 (Homo sapiens, UniProt O75762); experiment: Whole cell current in untransfected CCD-18Co cells; type: cell-based; details: without expression of zTrpa1b, violet and green light
T1 construct: human colonic fibroblast cells, CCD-18Co, which express human TRPA1 endogenously; endogenous in cells; host or cells: CCD-18Co (ATCC), untransfected
Description: Immortalized HEK293T cells or human colonic fibroblast cells (CCD-18Co; ATCC) were used. HEK293T cells were plated on […] cover slips and transiently transfected with 10 μg of Trpa1b plasmid (pCMV-zTrpa1b-FLAG) (SEQ ID NO:3) and 5 μg of mNeonGreen cDNA (Allele Biotechnology), then grown in a 6 cm plate for 24-48 h. CCD-18Co were cultured in Eagle's minimal essential medium with 10% FBS, 1× penicillin and streptomycin. CCD-18Co cells were plated on 12 mm cover slips and transiently transfected with 5 μg of zTrpa1b plasmid (pCMV-zTrpa1b-FLAG) together with 5 μg of mNeonGreen cDNA (Allele Biotechnology), then grown in a […] plate for 48-72 h. After this time, the cover slips were transferred to a recording chamber containing an extracellular solution composed of 145 mM sodium gluconate, 4 mM KCl, 3 mM MgCl2, 10 mM D-glucose, 10 mM HEPES; pH 7.4 adjusted with NaOH. The internal solution contained 122 mM cesium methane sulfonate, 1.8 mM MgCl2, 9 mM EGTA, 14 mM creatine phosphate (sodium salt), 4 mM Mg-ATP, 0.3 mM Na-GTP, 10 mM HEPES, pH 7.2 adjusted with CsOH. […] Whole cell currents were measured on an Axopatch 200B amplifier (Molecular De-vices) under the control of pClamp software. […] Basal Trpa1b whole cell currents were measured with a ramp protocol (˜100 to +100 mV, at a holding potential of 0 mV). […] The p values were calculated using a two-tailed, paired Student's t-test.

[3] = test system: larvae that lack exogenous expression of Trpa1b in cardiomyocytes; experiment: Heartbeat experiment in larvae that lack exogenous expression of Trpa1b in cardiomyocytes; type: in vivo, zebrafish; details: no exogenous Trpa1b in cardiomyocytes
zebrafish Trpa1b = experiment: Whole-cell patch-clamp of HEK293T cells expressing zebrafish Trpa1b; type: cell-based
Description: Immortalized HEK293T cells or human colonic fibroblast cells (CCD-18Co; ATCC) were used. HEK293T cells were plated on […] cover slips and transiently transfected with 10 μg of Trpa1b plasmid (pCMV-zTrpa1b-FLAG) (SEQ ID NO:3) and 5 μg of mNeonGreen cDNA (Allele Biotechnology), then grown in a 6 cm plate for 24-48 h. CCD-18Co were cultured in Eagle's minimal essential medium with 10% FBS, 1× penicillin and streptomycin. CCD-18Co cells were plated on 12 mm cover slips and transiently transfected with 5 μg of zTrpa1b plasmid (pCMV-zTrpa1b-FLAG) together with 5 μg of mNeonGreen cDNA (Allele Biotechnology), then grown in a […] plate for 48-72 h. After this time, the cover slips were transferred to a recording chamber containing an extracellular solution composed of 145 mM sodium gluconate, 4 mM KCl, 3 mM MgCl2, 10 mM D-glucose, 10 mM HEPES; pH 7.4 adjusted with NaOH. The internal solution contained 122 mM cesium methane sulfonate, 1.8 mM MgCl2, 9 mM EGTA, 14 mM creatine phosphate (sodium salt), 4 mM Mg-ATP, 0.3 mM Na-GTP, 10 mM HEPES, pH 7.2 adjusted with CsOH. Borosilicate glass pipettes with a resistance of 3-5 MO were used. Whole cell currents were measured on an Axopatch 200B amplifier (Molecular De-vices) under the control of pClamp software. Signals were digitized through a Digidata1550B interface (Molecular Devices). Currents were filtered at 5 kHz (lowpass, Bessel) and sampled at 10 kHz prior to analysis with Clampfit software (Molecular Devices). All the plots and statistical tests were performed on Excel (Microsoft corp.). Basal Trpa1b whole cell currents were measured with a ramp protocol (˜100 to +100 mV, at a holding potential of 0 mV). Photoactive compounds were perfused into the recording chamber and a fluorescent light generated by mercury vapor short arc (U-HGLGPS, OLYMPUS) filtered through an ET-ECFP 434/17 nm filter and through a ET-mCherry 560 nm filter (Chroma Technology) was switched “on” and “off” for 10 s. All experiments were performed at room temperature. The p values were calculated using a two-tailed, paired Student's t-test.

[4] = Photostationary state (PSS) determination; type: physicochemical
Excerpt: […] In the latter case, the pure Z isomer spectrum was estimated using methods described in previous publications.

Trpa1b−/− embryos = experiment: Rescue experiment, Trpa1b−/− embryos without re-expression; type: in vivo, zebrafish; details: 20 μM, motion within 5 s after 1 s WL3
Description: as §1, §2

[5] = UV-Vis spectroscopy in 30% water:DMSO, extrapolated pure Z spectrum, listed as TRPswitch-B

T1 sequence (O75762 whole entry): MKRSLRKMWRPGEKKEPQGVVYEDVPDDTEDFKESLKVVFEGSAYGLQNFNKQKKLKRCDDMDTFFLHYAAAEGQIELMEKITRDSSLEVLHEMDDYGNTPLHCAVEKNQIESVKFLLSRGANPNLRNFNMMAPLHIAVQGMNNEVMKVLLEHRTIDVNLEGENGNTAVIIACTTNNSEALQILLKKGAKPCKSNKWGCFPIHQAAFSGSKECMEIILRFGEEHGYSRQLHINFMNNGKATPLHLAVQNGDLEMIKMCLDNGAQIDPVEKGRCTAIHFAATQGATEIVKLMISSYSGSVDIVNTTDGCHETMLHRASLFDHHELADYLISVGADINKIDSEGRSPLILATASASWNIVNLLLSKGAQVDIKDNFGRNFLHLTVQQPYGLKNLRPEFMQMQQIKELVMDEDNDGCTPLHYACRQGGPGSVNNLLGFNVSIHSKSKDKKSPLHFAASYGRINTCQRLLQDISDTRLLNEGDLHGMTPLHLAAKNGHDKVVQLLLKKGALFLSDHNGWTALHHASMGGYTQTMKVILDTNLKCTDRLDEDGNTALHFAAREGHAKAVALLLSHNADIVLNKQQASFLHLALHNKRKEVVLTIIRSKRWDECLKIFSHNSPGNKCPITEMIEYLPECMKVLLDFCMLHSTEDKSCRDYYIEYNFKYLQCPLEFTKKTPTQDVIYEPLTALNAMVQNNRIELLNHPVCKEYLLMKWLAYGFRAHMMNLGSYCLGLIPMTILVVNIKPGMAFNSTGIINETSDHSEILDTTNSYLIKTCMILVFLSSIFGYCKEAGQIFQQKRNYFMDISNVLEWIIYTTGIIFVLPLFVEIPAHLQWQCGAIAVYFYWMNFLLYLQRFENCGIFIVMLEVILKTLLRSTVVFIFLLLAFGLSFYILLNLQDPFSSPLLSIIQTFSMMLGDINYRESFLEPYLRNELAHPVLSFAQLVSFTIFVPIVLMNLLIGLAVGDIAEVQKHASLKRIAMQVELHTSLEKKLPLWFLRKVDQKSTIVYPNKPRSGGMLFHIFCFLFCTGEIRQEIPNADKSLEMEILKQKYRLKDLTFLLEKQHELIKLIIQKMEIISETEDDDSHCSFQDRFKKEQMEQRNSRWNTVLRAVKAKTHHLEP

light induced photocurrent / cross reaction with endogenous human TRPA1 (endogenous human TRPA1): does not cross react
365 nm PSS (E-Z) ([4]; 1H NMR in DMSO-d6): 92% Z
420 nm PSS (E-Z) ([4]; 1H NMR in DMSO-d6): 55% Z
495 nm PSS (Z-E) ([4]; 1H NMR in DMSO-d6): 86% E
Estimated 365 nm PSS (E-Z) [4, 5]: 92% Z
Estimated 495 nm PSS (Z-E) [4, 5]: 100% E
Structure (SMILES): Cc1nn(C)c(C)c1/N=N/c1ccc(NC(=O)c2cccs2)cc1NC(=O)c1cccs1 [Compound 9, (E)-N,N′-(4-((1,3,5-trimethyl-1H-pyrazol-4-yl)diazenyl)-1,3-phenylene)bis(thiophene-2-carboxamide)]
% response [1]: 0%
% response [2]: 38.5%
heartbeat switching with light illumination [3]: negative results
current density fold increment after subsequent pulse of green light (zebrafish Trpa1b; +100 mV): 1.26±0.33 fold
current density fold increment upon violet light illumination (zebrafish Trpa1b; +100 mV): 2.12±0.47 fold
current density fold increment after subsequent pulse of green light (zebrafish Trpa1b; −100 mV): 1.41±0.38 fold
current density fold increment upon violet light illumination (zebrafish Trpa1b; −100 mV): 2.27±0.38 fold
% response (Trpa1b−/− embryos): 0%
